Laboratory results taken from US9579314B2 (priority 2015, dated 2017).

Legend:
Human M3 receptor = Human M3 receptor (Homo sapiens, UniProt P20309); settings: read-out: M3 binding affinity
Human β2 adrenoceptor = Human β2 adrenoceptor (Homo sapiens, UniProt P07550); settings: read-out: B2 binding affinity
Chain of Human β2 adrenoceptor (P07550 whole entry): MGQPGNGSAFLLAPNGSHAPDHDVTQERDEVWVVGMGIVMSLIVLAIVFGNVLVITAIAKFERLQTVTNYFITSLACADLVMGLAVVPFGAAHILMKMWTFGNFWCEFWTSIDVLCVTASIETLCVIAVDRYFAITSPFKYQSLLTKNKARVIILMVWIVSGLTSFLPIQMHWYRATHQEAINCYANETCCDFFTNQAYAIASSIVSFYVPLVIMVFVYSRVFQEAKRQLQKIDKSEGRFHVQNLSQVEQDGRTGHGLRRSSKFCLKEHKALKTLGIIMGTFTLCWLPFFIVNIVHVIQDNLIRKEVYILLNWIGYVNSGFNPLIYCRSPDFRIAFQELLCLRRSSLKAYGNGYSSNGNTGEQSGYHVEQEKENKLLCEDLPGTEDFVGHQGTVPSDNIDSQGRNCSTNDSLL

Chain of Human M3 receptor (P20309 whole entry): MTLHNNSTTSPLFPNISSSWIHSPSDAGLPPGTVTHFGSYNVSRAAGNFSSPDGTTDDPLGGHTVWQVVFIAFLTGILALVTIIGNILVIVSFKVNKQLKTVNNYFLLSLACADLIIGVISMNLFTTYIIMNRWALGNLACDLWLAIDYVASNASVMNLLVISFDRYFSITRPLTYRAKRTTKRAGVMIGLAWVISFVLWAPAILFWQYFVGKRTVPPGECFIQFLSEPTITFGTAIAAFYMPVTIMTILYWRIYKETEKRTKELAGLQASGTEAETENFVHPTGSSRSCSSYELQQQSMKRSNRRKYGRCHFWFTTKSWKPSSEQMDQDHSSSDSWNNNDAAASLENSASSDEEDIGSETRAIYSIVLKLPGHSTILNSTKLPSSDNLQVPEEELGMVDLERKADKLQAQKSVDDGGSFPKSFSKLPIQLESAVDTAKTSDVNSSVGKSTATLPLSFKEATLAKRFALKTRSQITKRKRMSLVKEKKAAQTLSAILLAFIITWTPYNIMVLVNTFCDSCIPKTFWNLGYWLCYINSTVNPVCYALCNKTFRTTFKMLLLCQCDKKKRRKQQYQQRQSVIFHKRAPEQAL

| Compound | IC50 (Human M3 receptor) | IC50 (Human β2 adrenoceptor) |
| --- | --- | --- |
| O=C(NCC(=O)N1CCC(COc2cccc([C@](O)(C(=O)OCC3CCN(Cc4ccccc4)CC3)c3ccccc3)c2)CC1)c1ccc(CNC[C@H](O)c2ccc(O)c3[nH]c(=O)ccc23)cc1 [Compound 154, (1-benzylpiperidin-4-yl)methyl (S)-2-hydroxy-2-(3-((1-((4-((((R)-2-hydroxy-2-(8-hydroxy-2-oxo-1,2-dihydroquinolin-5-yl)ethyl)amino)methyl)benzoyl)glycyl)piperidin-4-yl)methoxy)phenyl)-2-phenylacetate] | < 0.3 nM | < 0.3 nM |
| COc1cc(CNC[C@H](O)c2ccc(O)c3[nH]c(=O)ccc23)ccc1C(=O)NCC(=O)N1CCC(COc2cccc([C@](O)(C(=O)OCC3CCN(Cc4ccccc4)CC3)c3ccccc3)c2)CC1 [Compound 155, (1-benzylpiperidin-4-yl)methyl (S)-2-hydroxy-2-(3-((1-((4-((((R)-2-hydroxy-2-(8-hydroxy-2-oxo-1,2-dihydroquinolin-5-yl)ethyl)amino)methyl)-2-methoxybenzoyl)glycyl)piperidin-4-yl)methoxy)phenyl)-2-phenylacetate] | 0.3 to 3 nM | < 0.3 nM |
| O=C(c1ccc(C(=O)N2CCC(COc3cccc([C@](O)(C(=O)OCC4CCN(Cc5ccccc5)CC4)c4ccccc4)c3)CC2)s1)N1CCC(CNC[C@H](O)c2ccc(O)c3[nH]c(=O)ccc23)CC1 [Compound 156, (1-Benzylpiperidin-4-yl)methyl (S)-2-hydroxy-2-(3-((1-(5-(4-((((R)-2-hydroxy-2-(8-hydroxy-2-oxo-1,2-dihydroquinolin-5-yl)ethyl)amino)methyl)piperidine-1-carbonyl)thiophene-2-carbonyl)piperidin-4-yl)methoxy)phenyl)-2-phenylacetate] | < 0.3 nM | < 0.3 nM |
| O=C(OCC1CCN(Cc2ccccc2)CC1)[C@](O)(c1ccccc1)c1cccc(OCC2CCN(C(=O)[C@H]3CC[C@H](C(=O)N4CCC(CNC[C@H](O)c5ccc(O)c6[nH]c(=O)ccc56)CC4)CC3)CC2)c1 [Compound 157, (1-benzylpiperidin-4-yl)methyl (S)-2-hydroxy-2-(3-((1-((1R,4S)-4-(4-((((R)-2-hydroxy-2-(8-hydroxy-2-oxo-1,2-dihydroquinolin-5-yl)ethyl)amino)methyl)piperidine-1-carbonyl)cyclohexane-1-carbonyl)piperidin-4-yl)methoxy)phenyl)-2-phenylacetate] | 0.3 to 3 nM | > 3 nM |
| O=C(NCCCOc1cccc([C@](O)(C(=O)OCC2CCN(C3CCC3)CC2)c2ccccc2)c1)c1ccc(CNC[C@H](O)c2ccc(O)c3[nH]c(=O)ccc23)cc1 [Compound 161, (1-cyclobutylpiperidin-4-yl)methyl (S)-2-hydroxy-2-(3-(3-(4-((((R)-2-hydroxy-2-(8-hydroxy-2-oxo-1,2-dihydroquinolin-5-yl)ethyl)amino)methyl)benzamido)propoxy)phenyl)-2-phenylacetate] | 0.3 to 3 nM | < 0.3 nM |
| CN1CCC(COC(=O)[C@](O)(c2ccccc2)c2cccc(OCCCNC(=O)c3ccc(CNC[C@H](O)c4ccc(O)c5[nH]c(=O)ccc45)cc3)c2)CC1 [Compound 162, (1-methylpiperidin-4-yl)methyl (S)-2-hydroxy-2-(3-(3-(4-((((R)-2-hydroxy-2-(8-hydroxy-2-oxo-1,2-dihydroquinolin-5-yl)ethyl)amino)methyl)benzamido)propoxy)phenyl)-2-phenylacetate] | 0.3 to 3 nM | < 0.3 nM |
